# Test results taken from US12365925B2, “Method and system for treatment of microorganisms during propagation, conditioning, fermentation, and preservation using ethyl lauroyl arginate and selected additives” (KEMIN INDUSTRIES, INC., priority 2015, dated 2025).
# Columns and labels:
# [1] = system: Culture Dry Yeast (CDY) corn-mash fermentations; experiment: HPLC of corn-mash fermentations challenged with bacterial contamination and LAE treatments; format: cell-based; conditions: CDY + treatment + Bacteria; average
# Description: In support of validating LAE, High Performance Liquid Chromatography (HPLC) was used in a first phase of testing to evaluate the effects of LAE applications at various concentrations in order to determine the minimal inhibitory concentrations (MIC) of the LAE antimicrobial on a panel of industry-relevant bacteria. Refer to Tables 1 and 2 below, as well as FIGS. 2A-2D. FIG. 2A provides a visual depiction of test data relating to ethanol output from corn-mash fermentations treated with varying concentrations of LAE, with the results being the averages of triplicate samples (within one standard deviation). FIG. 2B provides a visual depiction of test data relating to ethanol output from corn-mash fermentations challenged with bacterial contamination and treated with 35 ppm LAE or 5 ppm Lactocide V (Virginamycin) (at the same time as the introduction of the bacteria), with the results being the averages of triplicate samples (within one standard deviation). FIG. 2C provides a visual depiction of test data relating to ethanol output from corn-mash fermentations challenged with bacterial contamination and treated with 50 ppm LAE or 5 ppm Lactocide V (Virginamycin) (at the same time as the introduction of the bacteria), with the results being the averages of triplicate samples (within one standard deviation). FIG. 2D provides a visual depiction of test data relating to colony-forming units (CFUs) of commercial yeast preparation with bacterial-contamination growth under batch-propagation conditions (molasses) with the addition of 0 ppm, 25 ppm, or 50 ppm LAE. One of the primary goals with the first phase of the LAE studies was to determine whether the addition of LAE would adversely affect ethanol production, and it was determined that LAE not only was not harmful to ethanol-production processes, but that unwanted microbe growth was inhibited using LAE enough to allow foregoing the use of antibiotics. Part of this analysis was to determine whether the introduction of LAE into the ethanol-production process would adversely impact the stillage byproducts used in animal feed, and for that matter whether the further use of LAE as a preservative in such byproducts would be safe for consumption by agricultural livestock. […] The testing serving as a basis for this conclusion assumed a maximum residual concentration of the LAE of 173 ppm in the distiller's grains. The safety of distiller's grains with LAE concentrations above 173 ppm was not fully evaluated.
# fermentation = fermentation mixture; cited from earlier work
# Weisella confusa = conditions: fermentation mixture; cited from earlier work
substance,measurement,setting,value
Virginiamycin [Lactocide],Acetic Acid,[1],0.14 % wt/vol
same,DP3,[1],0.15 % wt/vol
same,DP4,[1],0.78 % wt/vol
same,Ethanol,[1],13.36 % wt/vol
same,Glucose,[1],0.12 % wt/vol
same,Glycerol,[1],1.59 % wt/vol
same,Lactic Acid,[1],0.27 % wt/vol
same,Maltose,[1],0.48 % wt/vol
same,concentration that will suppress fermentation,fermentation,over 6 mg/L
same,concentration required to inhibit growth,Weisella confusa,over 25 mg/L
